# Patent US11253532B2, “Composition for promoting increase in androgen” (Kobayashi Pharmaceutical Co., Ltd., priority 2016, dated 2022)
# System: cells of testes collected from mice (primary culture)
# Test: Test Example 1: testosterone secretion from primary culture of mouse testes cells, measured by EIA
# Format: cell-based, mice (ddY strain)
# Details: 2-hour culture
# Experimental: 2 mL of 50% ethanol was added to 4 mg/vial of compound K (trade name: Ginsenoside CK, 0150S, Extrasynthese S.A.) to dissolve compound K, and the obtained solution was suitably diluted with a DME/F-12 medium (Nacalai Tesque) containing 0.1% bovine serum albumin (BSA) (“0.1% BSA-DME/F-12”) to prepare a sample.
# Testes were collected from mice (ddY strain, male, 7 to 8 weeks old), and subjected to primary culture. Specifically, testes were subjected to collagenase treatment (Worthington, Type 2, 0.05%, 37° C., 15 minutes) to disperse cells, and adjusted to 3×10^5 cells/0.5 mL in a DME/F-12 medium containing 10% fetal bovine serum (FBS). The cells were then seeded into a 24-well plate, and cultured overnight. After culture, the cells were washed with PBS(−) (Dulbecco's PBS (0.2 g/L of potassium chloride, 0.2 g/L of monopotassium phosphate, 8 g/L of sodium chloride, 1.15 g/L of anhydrous disodium phosphate, pH of 7.4, an isotonic solution, ion content: (mEq)Na^+ 148, K^+ 4, Cl^− 139)). The prepared sample was then added to the cells to give a volume of 1/10, together with a 0.1% BSA-DME/F-12 medium, and the concentration of compound K in the wells was adjusted to 1 μg/mL, 10 μg/mL, and 100 μg/mL.
# A mixture solution of 50% ethanol and 0.1% BSA-DME/F-12 was prepared in place of the sample in the same manner as above, except that compound K was not added; this mixture was added to the cells to give a volume of 1/10 as above, thereby preparing a control (the concentration of compound K: 0 μg/mL).
# After 2-hour culture, the medium was collected, and the testosterone levels in the mediums were measured by enzyme immunoassay (EIA).
# Specifically, a goat anti-rabbit IgG antibody (2 μg/well) was added to a 96-well microplate (Nunc, Denmark), and the plate was coated at room temperature for 1 hour. After washing, a blocking agent (0.14M NaCl, 0.02% thimerosal, 1% BSA, 0.01M phosphate buffer, pH of 7.4) was added thereto to perform blocking at room temperature for 15 minutes. […] The absorbance at 490 nm was measured with a microplate reader to determine the testosterone secretion level.
smiles,measurement,setting,value
"CC(C)=CCC[C@](C)(O[C@@H]1O[C@H](CO)[C@@H](O)[C@H](O)[C@H]1O)[C@H]1CC[C@]2(C)[C@@H]1[C@H](O)C[C@@H]1[C@@]3(C)CC[C@H](O)C(C)(C)[C@@H]3CC[C@]12C [compound K, 20(S)-protopanaxadiol 20-O-β-d-glucopyranoside (M1)]",testosterone level in a medium,"compound K 1 μg/mL, not shown in FIG. 1",increased testosterone level
same,testosterone level in a medium,"compound K 10 μg/mL, versus medium free from compound K (0 μg/mL), FIG. 1",higher
same,testosterone level in a medium,"compound K 100 μg/mL, versus medium free from compound K (0 μg/mL), FIG. 1",higher
